Holding throughout (assay): NCI anticancer screen, dose series, 48 h
Assay [1] deals with ACHN.
The test system of assay [2] is CAKI-1.
Assay [3] concerns CCRF-CEM.
The subject of assay [4] is EKVX.
The subject of assay [5] is HOP-62.
The test system of assay [6] is KM12.
The test system of assay [7] is NCI-H226.
The subject of assay [8] is NCI/ADR-RES.
Assay [9] concerns OVCAR-4.
Assay [10] concerns OVCAR-5.
Assay [11] concerns RPMI-8226.
Assay [12] relates to RXF 393.
For assay [13], the system named is SK-MEL-28.
Assay [14] relates to SK-OV-3.
Assay [15] deals with SNB-75.
Assay [16] deals with SR.
For assay [17], the system named is SW-620.
In assay [18] the test system is U-251.
Assay [19] deals with UO-31.

The structures appear in SMILES notation.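 Exposure lasted 48 hours, with cells grown in 96-well plates and compounds tested at five concentrations. GI50: concentration for 50% inhibition of growth.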 The source made the active and inactive calls. Rule as the data show it: active = GI50 up to about 1.1 µM and inactive = higher. Peptide text beside a SMILES is read from it. * marks the point of attachment. Boc = CC(C)(C)OC(=O)* Where only a bound is given, the exact number is not on record here.

On to `COCN1CCN=c2c1c1c3c(c4ccccc4n23)CCC1`, for which the GI50 in [1], in assay [2], in [3], in [4], in [5] and in [6] was > 100 µM (inactive) throughout. In addition, the GI50 in [7] is 10.7 µM (inactive); in assay [8], > 100 µM (inactive); in [9] it was > 100 µM (inactive); in assay [10], > 100 µM (inactive); in assay [11], > 100 µM (inactive); in assay [12], > 100 µM (inactive). For the same compound, the GI50 in assay [13], in assay [14], in [15], in assay [16], in assay [17] and in assay [18] was > 100 µM (inactive) each time. For the same compound, the GI50 in [19] is > 100 µM (inactive).
`Cc1cccc2c1CC(C1OC(=O)c3c(C)cccc31)C2=O` (stereo not given): the GI50 in [1], in assay [2], in assay [3], in assay [4], in [5] and in assay [6] was > 100 µM (inactive) in each case. Moreover, the GI50 is > 100 µM (inactive) in [7]; > 100 µM (inactive) in assay [8]; > 100 µM (inactive) in assay [9]; > 100 µM (inactive) in [10]; 88.5 µM (inactive) in assay [11]; > 100 µM (inactive) in assay [12]. For the same compound, the GI50 in assay [13], in assay [14], in [15], in assay [16], in assay [17] and in assay [18] was > 100 µM (inactive) throughout. Besides, the GI50 in [19] is > 100 µM (inactive).
As for `COC(=O)C(Cc1ccccc1)NC(=O)C(CS)NC(=O)OC(C)(C)C` (stereo not drawn) (Boc-Cys-Phe-OMe; configuration not given here), the GI50 in assay [1] is > 100 µM (inactive); in assay [2], > 100 µM (inactive); in [3], 21.8 µM (inactive); in assay [4], > 100 µM (inactive); in [5] it was > 100 µM (inactive); in assay [6], 94.4 µM (inactive). Moreover, the GI50 in assay [7] was > 100 µM (inactive); in assay [8], > 100 µM (inactive); in [9], 32.1 µM (inactive); in assay [10], > 100 µM (inactive); in assay [11], > 100 µM (inactive); in [12] it was 26 µM (inactive). Further, the GI50 is > 100 µM (inactive) in [13]; > 100 µM (inactive) in [14]; > 100 µM (inactive) in assay [15]; 27.2 µM (inactive) in assay [16]; 53.7 µM (inactive) in assay [17]; > 100 µM (inactive) in assay [18]. Also, the GI50 in [19] is 74.1 µM (inactive).
With `CC(C)(Oc1ccc(-c2cccc3ccccc23)cc1)C(=O)O`, the GI50 is > 100 µM (inactive) in [1]; > 100 µM (inactive) in [2]; 6.22 µM (inactive) in assay [3]; > 100 µM (inactive) in [4]; > 100 µM (inactive) in [5]; 97.7 µM (inactive) in assay [6]. Also, the GI50 in assay [7], in assay [8], in assay [9], in assay [10], in [11] and in assay [12] was > 100 µM (inactive) each time. Further, the GI50 in assay [13], in assay [14], in assay [15], in [16], in [17] and in [18] was > 100 µM (inactive) throughout. Moreover, the GI50 in assay [19] is > 100 µM (inactive).
In the case of `CCOC(=O)c1nc2cc(F)c(N3CCOCC3)cc2[nH]c1=O`, the GI50 was > 100 µM (inactive) in assay [1]; > 100 µM (inactive) in assay [2]; 96.4 µM (inactive) in assay [3]; 13.9 µM (inactive) in assay [4]; > 100 µM (inactive) in assay [5]; > 100 µM (inactive) in assay [6]. The GI50 in assay [7] is 90.8 µM (inactive); in [8] it was > 100 µM (inactive); in assay [9] it was > 100 µM (inactive); in [10] it was > 100 µM (inactive); in assay [11] it was > 100 µM (inactive); in [12] it was > 100 µM (inactive). In addition, the GI50 in [13] is > 100 µM (inactive); in assay [14], > 100 µM (inactive); in [15] it was > 100 µM (inactive); in assay [16], 36.3 µM (inactive); in [17], > 100 µM (inactive); in assay [18], 99.1 µM (inactive). Further, the GI50 in assay [19] is 65.3 µM (inactive).
On to `C#CC1(O)CCC2[C@@H]3CCc4cc(Oc5nc(F)nc(-c6c(C)c(C(=O)OCC)n7ccccc67)n5)ccc4C3CC[C@@]21C` (stereo not given in full), for which the GI50 is > 100 µM (inactive) in [1]; > 100 µM (inactive) in assay [2]; 61 µM (inactive) in assay [3]; > 100 µM (inactive) in assay [4]; > 100 µM (inactive) in assay [5]; > 100 µM (inactive) in [6]. For the same compound, the GI50 in assay [7], in assay [8], in assay [9], in assay [10], in assay [11] and in assay [12] was > 100 µM (inactive) throughout. Further, the GI50 in assay [13], in assay [14], in assay [15], in [16], in assay [17] and in assay [18] was > 100 µM (inactive) each time. In addition, the GI50 in assay [19] is > 100 µM (inactive).
In the case of `CCOC(=O)C(=O)C(/C(=N/N(C)C)C(=O)Nc1ccc(C)cc1C)c1nc2ccccc2nc1O` (stereo not given), the GI50 in [1] is > 100 µM (inactive); in assay [2], > 100 µM (inactive); in [3], > 100 µM (inactive); in assay [4] it was 49.1 µM (inactive); in [5], > 100 µM (inactive); in assay [6], > 100 µM (inactive). Also, the GI50 in assay [7], in assay [8], in [9], in assay [10], in assay [11] and in assay [12] was > 100 µM (inactive) each time. Also, the GI50 in assay [13], in assay [14], in [15], in [16], in assay [17] and in assay [18] was > 100 µM (inactive) throughout. The GI50 in [19] was > 100 µM (inactive).
Turning to `CC(C)OC(=O)c1ccc(NCc2cc(O)ccc2O)cc1`, the GI50 was 3.6 µM (inactive) in assay [1]; 1.28 µM (inactive) in assay [2]; 0.27 µM (active) in assay [3]; 3.82 µM (inactive) in assay [4]; 4.98 µM (inactive) in assay [5]; 3.38 µM (inactive) in assay [6]. Further, the GI50 was 3.21 µM (inactive) in assay [7]; 1.95 µM (inactive) in assay [8]; 5.05 µM (inactive) in [9]; 10.4 µM (inactive) in assay [10]; 0.483 µM (active) in assay [11]; 1.32 µM (inactive) in assay [12]. Besides, the GI50 in assay [13] is 8 µM (inactive); in [14] it was 17.3 µM (inactive); in assay [15], 4.61 µM (inactive); in assay [16], 1.06 µM (active); in [17], 4.86 µM (inactive); in assay [18] it was 4.32 µM (inactive). Also, in [19], the GI50 was 1.51 µM (inactive).
Turning to `NN/C(=N\S(=O)(=O)c1cc(Cl)c(Oc2ccc([N+](=O)[O-])cc2Cl)c(Cl)c1)Nc1ccc(Cl)cc1`, the GI50 in [1] is 23.7 µM (inactive); in assay [2], 17.9 µM (inactive); in [3] it was 10.8 µM (inactive); in [4] it was 21.8 µM (inactive); in [5], 18.4 µM (inactive); in assay [6] it was 18.8 µM (inactive). Further, the GI50 in [7] was 15.9 µM (inactive); in assay [8], 23.2 µM (inactive); in assay [9] it was 17.9 µM (inactive); in assay [10], 24.4 µM (inactive); in [11] it was 31.8 µM (inactive); in assay [12], 13.2 µM (inactive). Moreover, the GI50 is 21.5 µM (inactive) in [13]; 44.7 µM (inactive) in assay [14]; 23.7 µM (inactive) in [15]; 16.6 µM (inactive) in assay [16]; 28.7 µM (inactive) in assay [17]; 16.2 µM (inactive) in assay [18]. The GI50 in assay [19] is 17.6 µM (inactive).
On to `CS(=O)(=O)OCCN(CCOS(C)(=O)=O)c1ccc(/C=N/c2cccc(Cl)c2)cc1`, for which the GI50 in assay [1] was 0.181 µM (active); in assay [2], 0.239 µM (active); in assay [3], 1.82 µM (inactive); in assay [4], 7.36 µM (inactive); in assay [5] it was 7.23 µM (inactive); in [6] it was 13.4 µM (inactive). The GI50 is 2.06 µM (inactive) in [7]; 3.61 µM (inactive) in [8]; 13.5 µM (inactive) in [9]; 2.95 µM (inactive) in [10]; 3.85 µM (inactive) in [11]; 2.78 µM (inactive) in [12]. The GI50 in assay [13] was 10.4 µM (inactive); in assay [14], 0.561 µM (active); in assay [15] it was 2.11 µM (inactive); in assay [16], 0.0537 µM (active); in [17], 12.8 µM (inactive); in assay [18], 3.72 µM (inactive). In addition, the GI50 in assay [19] is 1.6 µM (inactive).

Source of the values: ChEMBL document CHEMBL1201862, “PubChem BioAssay data set” (2004).
